The values below come from patent US7786160B2, “Combination of selected analgesics and COX-II inhibitors” (Gruenenthal GmbH, priority 2002, dated 2010).

Type in all cases: in vivo
Experiment [1] concerns rat. Nature of the experiment: Randall-Selitto test (yeast oedema, model for inflammatory pain). The note with it: for effect of compound A with COX-II inhibitor (Rofecoxib or Celecoxib) compared with additive (in words): staggered administration, Rofecoxib or Celecoxib 1 hour prior to compound A. The protocol:
The Randell-Selitto test of Randall and Selitto (Arch. Int. Pharmacodyn., 1957, 111: 409 to 419) is a model for inflammatory pain.
By means of the injection of 0.1 ml 20% baking yeast suspension ventrally into a hind paw an oedema was induced, on which pain was generated 4 hours later by continuously increasing pressure with a stamp (2 mm tip diameter). The measured value to be determined and at the same time also the end point of the pain test was the pressure at which the vocalisation reaction of the animal occurred. The percentage maximum possible effect (%MPE) was calculated. The maximum pressure of the stamp was 250 g. The group size was n=10.
The theoretical additive value was calculated by adding the mean values from the individual tests of the test substance and COX-II inhibitor. The corresponding standard deviation of the theoretical additive mean value was calculated from the addition of the variances.

Experiment [2] is described as follows: All listed animal models together (acute, chronic and inflammatory pain). As to conditions: simultaneous administration with a selective COX-II inhibitor (Rofecoxib or Celecoxib), chronic and inflammatory pain (Table 1). The method, then: 1, 4, 2 and 2 (Randall-Selitto test). In these tests, either Rofecoxib or Celecoxib was administered 1 hour prior to the administration of the selected analgesic (compound A). In a few tests, Rofecoxib was administered as the final preparation Vioxx and Celecoxib as Celebrex.

Experiment [3] relates to rat. Nature of the experiment: Writhing test (acetic acid, model for acute pain). As to conditions: peroral, substance alone. The protocol: The writhing test is a modification of the method of Schmauss C and Yaksh TL, J Pharmacol Exp Ther 228: 1-12 (1984) and a model for acute pain.
9% acetic acid was administered to the animals intraperitoneally as a pain stimulus. This was administered 30 min (test substance perorally) or 10 min (test substance intravenously) after the administration of the test substance. The pain-induced writhing reactions were recorded 10 to 35 min after the administration of acetic acid. […] Pain expressions, such as a slanting body angle when the animal stands upright, frequent cleaning of the belly or arching of the back without stretching of the rear limbs, were thus included in the evaluation.
The animals that had been treated with the substance were compared with a control group, which had been given physiological saline solution. The group contained 10 animals (n=10).

Experiment [4] deals with rat. The experiment is described as follows: Formalin test (chronic pain component), rat. The note with it: peroral, substance alone. The method, then:
(§1) The formalin test (Dubuisson, D. and Dennis, S. G., 1977, Pain, 4, 161 to 174) is a model for acute and chronic pain. In the tests presented here, the chronic pain component was evaluated.
(§2) By means of a single formalin injection into the dorsal side of a hind paw of test animals that were able to move freely, a biphasic nociceptive reaction, which was detected by the observation of three clearly distinguishable behavioural patterns, was induced.
(§3) Formalin having a volume of 20 μl and a concentration of 1% was administered subcutaneously into the dorsal side of the right hind paw of each animal. The specific behavioural changes, such as raising and shaking of the paw, weight loss in the animal and biting and licking reactions, were continuously observed and registered for up to 60 min after the formalin administration. The behavioural changes were weighted differently (a score of 0 to 3) and a pain rate (PR) calculated having the general formula: PR=[(T0×0)+(T1×1)+(T2×2)+(T3×3)/180.
(§4) The group contained 10 animals (n=10).

A further experiment has as its system mouse. Nature of the experiment: Formalin test (chronic pain component), mouse. As to conditions: peroral, substance alone. The protocol:
as §1, §2, §3, §4

[5] abbreviates: read-out: ED50 [mg/kg] of compound A.
Where [6] appears, read: read-out: ED50 [mg/kg] of COX-II inhibitor.

Where two headings read alike, the source gives them in different places.

With `COc1cccc([C@@]2(O)C[C@H](O)CC[C@@H]2CN(C)C)c1.Cl` (racemic) [Compound 4], the “% effect of compound A” value in the experiment with rat [1] (Table 2, staggered series, compound A alone 68.1 mg/kg peroral, 15-75 min after administration of compound No. 4) is 85.4%; in the experiment on rat [1] (Table 2, staggered series, compound A alone 68.1 mg/kg peroral, 75-90 min after administration of compound No. 4) it was 45.2%. For the same compound, the “effect of compound A with COX-II inhibitor (Rofecoxib or Celecoxib) compared with additive (in words)” value in the experiment with rat [1] is “clear effect-increasing supra-additive effect”.

Regarding `CN(C)C[C@@H]1CCCC[C@H]1c1cccc(O)c1.Cl` [Compound 1, (1R,2R)-3-(2-dimethylaminomethyl-cyclohexyl)-phenol; hydrochloride], in experiment [2], the “effect in comparison to the theoretically calculated purely additive effect” value was “intensification of effect”. Moreover, the “% effect of compound A” value with rat [1] (Table 3, staggered series, compound A alone 46.4 mg/kg peroral) was 26.2%. Besides, the “effect of compound A with COX-II inhibitor (Rofecoxib or Celecoxib) compared with additive (in words)” value in the experiment on rat [1] is given as “clear effect-increasing supra-additive effect”.

For the compound `CC[C@@H](c1cccc(O)c1)[C@@H](C)CN(C)C.Cl` [Compound 2, (1R,2R)-3-(3-dimethylamino-1-ethyl-2-methyl-propyl)-phenol; hydrochloride], the ED50 with rat [3] (setting [5]) worked out at 33 mg/kg; in the experiment on rat [4] (setting [5]), 18 mg/kg; with mouse (setting [5]) it was 34.6 mg/kg. The “% effect of compound A” value was found to be 20.0% in the experiment with rat [1] (Table 1, staggered administration series, compound A alone 31 mg/kg peroral); 32.6% in the experiment with rat [1] (Table 1, staggered administration series, compound A alone 46 mg/kg peroral); 13.3% in the experiment with rat [1] (fixed dose combination (not staggered), compound A alone 31 mg/kg peroral, %MPE). In the experiment on rat [1], the “effect of compound A with COX-II inhibitor (Rofecoxib or Celecoxib) compared with additive (in words)” value is on record as “clear effect-increasing supra-additive effect”.

For the compound `CC[C@H](c1cccc(O)c1)[C@H](C)CN(C)C.Cl` [Compound 3, (1S,2S)-3-(3-dimethylamino-1-ethyl-2-methyl-propyl)-phenol; hydrochloride], the “% effect of compound A” value in the experiment with rat [1] (Table 4, staggered series, compound A alone 21.5 mg/kg peroral) is reported as 22.8%.

Regarding `Cc1ccc(-c2cc(C(F)(F)F)nn2-c2ccc(S(N)(=O)=O)cc2)cc1` [Compound 101, Celecoxib, reference compound], the ED50 with rat [4] (setting [6]) worked out at 154 mg/kg; in the experiment with mouse (setting [6]), 38.5 mg/kg. In the experiment on rat [1] (fixed dose combination (not staggered), COX-II inhibitor alone 215 mg/kg peroral, %MPE), the “% effect of COX-II inhibitor” value came to 9.8%.

Regarding `CS(=O)(=O)c1ccc(C2=C(c3ccccc3)C(=O)OC2)cc1` [Compound 102, Rofecoxib, reference compound], the ED50 with rat [3] (setting [6]) turned out to be 60.1 mg/kg.
